From patent publication US5430062A, “Stilbene derivatives as anticancer agents” (priority 1993, dated 1995)
Values joined by “and” are separate entries in the source; they are usually repeats but may differ in a detail not shown here. Equal entries are not always repeated.

Tested on: HL-60 (TB) leukemia
Experiment: Cytotoxicity, HL-60(TB) leukemia
Details: Hydrochloride

With `COc1cc(CNc2ccc(C)cc2)cc(OC)c1OC.Cl` [110a, 4-Methyl-N-(3,4,5-trimethoxybenzyl)aniline Hydrochloride] the “Log10 GI50, HL-60 (TB)” value was < -7.00 and -7.05.
